Source: patent US7977332B2, “Insecticidal N-(heteroarylalkyl)alkanediamine derivatives” (FMC Corporation, priority 2003, dated 2011)

test system: tobacco budworm (Heliothis virescens [Fabricius]); experiment: surface-treated diet test against tobacco budworm; assay type: in vivo; conditions: 0.25 millimolar on the surface of the diet; second instar larvae; five-day exposure
Description: Candidate insecticides were evaluated for activity against the tobacco budworm (Heliothis virescens [Fabricius]) in a surface-treated diet test.
In this test one mL of molten (65-70° C.) wheat germ-based artificial diet was pipetted into each well of a four by six (24 well) multi-well plate (ID# 430345-15.5 mm dia.×17.6 mm deep; Corning Costar Corp., One Alewife Center, Cambridge, Mass. 02140). The diet was allowed to cool to ambient temperature before treatment with candidate insecticide.
For a determination of insecticidal activity, solutions of the candidate insecticides were prepared for testing using a Packard 204DT Multiprobe® Robotic System (Packard Instrument Company, 800 Research Parkway, Meriden, Conn. 06450), in which the robot first diluted a standard 50 millimolar DMSO solution of candidate insecticide with a 1:1 water/acetone solution (V/V) in a ratio of 1:7 stock solution to water/acetone. The robot subsequently pipetted 40 microliters of the so-prepared solution onto the surface of the diet in each of three wells in the 24 multi-well plate. The process was repeated with solutions of seven other candidate insecticides. Once treated, the contents of the multi-well plate were allowed to dry, leaving 0.25 millimoles of candidate insecticide on the surface of the diet, or a concentration of 0.25 millimolar. Appropriate untreated controls containing only DMSO on the diet surface were also included in this test.
For evaluations of the insecticidal activity of a candidate insecticide at varying rates of application, the test was established as described above using sub-multiples of the standard 50 millimolar DMSO solution of candidate insecticide. For example, the standard 50 millimolar solution was diluted by the robot with DMSO to give 5, 0.5, 0.05, 0.005, 0.0005 millimolar, or more dilute solutions of the candidate insecticide. In these evaluations there were six replicates of each rate of application placed on the surface of the diet in the 24 multi-well plate, for a total of four rates of application of candidate insecticide in each plate.
In each well of the test plate was placed one second instar tobacco budworm larvea, each weighing approximately five milligrams. After the larvae were placed in each well, the plate was sealed with clear polyfilm adhesive tape. The tape over each well was perforated to ensure an adequate air supply. The plates were then held in a growth chamber at 25° C. and 60% relative humidity for five days (light 14 hours/day).
After the five-day exposure period insecticidal activity for each rate of application of candidate insecticide was assessed as percent inhibition of insect weight relative to the weight of insects from untreated controls, and percent mortality when compared to the total number of insects infested.
The test compounds of formula I are identified by numbers that correspond to those in Table 1.

Compound | Percent Mortality [%]
CSC(=C[N+](=O)[O-])NCCN(CCC(F)(F)F)Cc1ccc(Cl)nc1 [Compound 3] | 50
CSC(=C[N+](=O)[O-])NCCN(CC#N)Cc1ccc(Cl)nc1 [Compound 10] | 17
C=CCN(CCNC(=C[N+](=O)[O-])OC)Cc1ccc(Cl)nc1 [Compound 242] | 83
C#CCN(CCN/C(=C/[N+](=O)[O-])OC)Cc1ccc(Cl)nc1 [Compound 244] | 83
C#CCN(CCNC(=C[N+](=O)[O-])SC)Cc1ccc(Cl)nc1 [Compound 248, {2-[((1Z)-1-methylthio-2-nitrovinyl)amino]ethyl}[(6-chloro(3-pyridyl)methyl]prop-2-ynylamine] | 100

same assay, conditions: 0.25 millimolar on the surface of the diet; second instar larvae; five-day exposure; insect weight relative to untreated controls

Compound | Percent Growth Inhibition [%]
COC(=C[N+](=O)[O-])NCCN(CCCF)Cc1ccc(Cl)nc1 [Compound 1] | 100
CSC(=C[N+](=O)[O-])NCCN(CCCF)Cc1ccc(Cl)nc1 [Compound 2] | 100
CSC(=C[N+](=O)[O-])NCCN(CCC(F)(F)F)Cc1ccc(Cl)nc1 [Compound 3] | 96
COCCN(CCNC(=C[N+](=O)[O-])SC)Cc1ccc(Cl)nc1 [Compound 4] | 100
CCOCCN(CCNC(=C[N+](=O)[O-])SC)Cc1ccc(Cl)nc1 [Compound 5] | 100
COCCOCCN(CCNC(=C[N+](=O)[O-])OC)Cc1ccc(Cl)nc1 [Compound 6] | 95
COCCOCCN(CCNC(=C[N+](=O)[O-])SC)Cc1ccc(Cl)nc1 [Compound 7] | 99
COCCOCCN(CCNC(=C[N+](=O)[O-])OCCOC)Cc1ccc(Cl)nc1 [Compound 8] | 100
CSC(=C[N+](=O)[O-])NCCN(O)Cc1ccc(Cl)nc1 [Compound 9] | 91
CSC(=C[N+](=O)[O-])NCCN(CC#N)Cc1ccc(Cl)nc1 [Compound 10] | 90
CSC(=C[N+](=O)[O-])NCCN(Cc1ccc(Cl)nc1)CC1CCOC1 (stereo not shown) [Compound 14] | 100
CSC(=C[N+](=O)[O-])NCCN(Cc1ccc(Cl)nc1)CC1CCCCO1 (stereo not shown) [Compound 15] | 85
CSC(=C[N+](=O)[O-])NCCN(Cc1ccc(Cl)nc1)Cc1ccsc1 [Compound 17] | 99
CSC(=C[N+](=O)[O-])NCCN(Cc1ccc(Cl)nc1)Cc1ccco1 [Compound 18] | 100
CSC(=C[N+](=O)[O-])NCCN(Cc1ccc(Cl)nc1)Cc1ccoc1 [Compound 19] | 100
CCN(CCNC(=C[N+](=O)[O-])OC)Cc1ccc(Cl)nc1 [Compound 41] | 100
COC(=C[N+](=O)[O-])NCCN(Cc1ccc(Cl)nc1)Cc1ccc(Cl)nc1 [Compound 187] | 50
CC(C)COC(=C[N+](=O)[O-])NCCN(Cc1ccc(Cl)nc1)Cc1ccc(Cl)nc1 [Compound 189] | 100
O=[N+]([O-])C=C(NCCN(Cc1ccc(Cl)nc1)Cc1ccc(Cl)nc1)OCC1CCCCC1 [Compound 190] | 100

Compound | Percent Growth Inhibition [%]
CSC(=C[N+](=O)[O-])NCCN(Cc1cccnc1)Cc1ccc(Cl)nc1 [Compound 192] | 92
CSC(=C[N+](=O)[O-])NCCN(Cc1ccc(Cl)nc1)Cc1ccc(Cl)nc1 [Compound 198] | 50
CC(C)CSC(=C[N+](=O)[O-])NCCN(Cc1ccc(Cl)nc1)Cc1ccc(Cl)nc1 [Compound 202] | 100
O=[N+]([O-])C=C(NCCN(Cc1ccc(Cl)nc1)Cc1ccc(Cl)nc1)SCC1CCCCC1 [Compound 203] | 100
C=CCN(CCNC(=C[N+](=O)[O-])SC)Cc1ccc(Cl)nc1 [Compound 220] | 100
C=CCN(CCNC(=C[N+](=O)[O-])SCC1CCCCC1)Cc1ccc(Cl)nc1 [Compound 221] | 100
C=CCCN(CCNC(=C[N+](=O)[O-])SC)Cc1ccc(Cl)nc1 [Compound 222] | 100
CC=CCN(CCNC(=C[N+](=O)[O-])SC)Cc1ccc(Cl)nc1 [Compound 223] | 98
CSC(=C[N+](=O)[O-])NCCN(CC=CCl)Cc1ccc(Cl)nc1 [Compound 224] | 100
C=C(Cl)CN(CCNC(=C[N+](=O)[O-])SC)Cc1ccc(Cl)nc1 [Compound 225] | 89
CSC(=C[N+](=O)[O-])NCCN(CC=C(Cl)Cl)Cc1ccc(Cl)nc1 [Compound 228] | 100
CSC(=C[N+](=O)[O-])NCCN(CCC(F)=C(F)F)Cc1ccc(Cl)nc1 [Compound 229] | 96
CSC(=C[N+](=O)[O-])NCCN(CC=Cc1ccccc1)Cc1ccc(Cl)nc1 [Compound 230] | 88
C=CCN(CCNC(=N[N+](=O)[O-])SC)Cc1ccc(Cl)nc1 [Compound 231] | 100
C=CCN(CCNC(=C[N+](=O)[O-])OC)Cc1ccc(Cl)nc1 [Compound 242] | 96
C#CCN(CCN/C(=C/[N+](=O)[O-])OC)Cc1ccc(Cl)nc1 [Compound 244] | 100
C#CCN(CCNC(=C[N+](=O)[O-])OCC)Cc1ccc(Cl)nc1 [Compound 245] | 100
C#CCN(CCNC(=C[N+](=O)[O-])OCCOC)Cc1ccc(Cl)nc1 [Compound 246] | 100
C#CCN(CCNC(=C[N+](=O)[O-])OCCOCCOC)Cc1ccc(Cl)nc1 [Compound 247] | 100

Compound | Percent Growth Inhibition [%]
C#CCN(CCNC(=C[N+](=O)[O-])SC)Cc1ccc(Cl)nc1 [Compound 248, {2-[((1Z)-1-methylthio-2-nitrovinyl)amino]ethyl}[(6-chloro(3-pyridyl)methyl]prop-2-ynylamine] | 100
C#CCCN(CCNC(=C[N+](=O)[O-])SC)Cc1ccc(Cl)nc1 [Compound 252] | 100
CC#CCN(CCNC(=C[N+](=O)[O-])SC)Cc1ccc(Cl)nc1 [Compound 253] | 100
CC#CCCN(CCNC(=C[N+](=O)[O-])SC)Cc1ccc(Cl)nc1 [Compound 254] | 100
CCCCCC#CCN(CCNC(=C[N+](=O)[O-])SC)Cc1ccc(Cl)nc1 [Compound 255] | 88
C#CCN(CCNC(=C[N+](=O)[O-])OCC1CCCCC1)Cc1ccc(Cl)nc1 [Compound 256] | 100
C#CCN(CCNC(=C[N+](=O)[O-])SCC1CCCCC1)Cc1ccc(Cl)nc1 [Compound 257] | 100
C#CCCN(CCNC(=C[N+](=O)[O-])SCC1CCCCC1)Cc1ccc(Cl)nc1 [Compound 258] | 100
C#CCN(CCNC(=N[N+](=O)[O-])SC)Cc1ccc(Cl)nc1 [Compound 279] | 100
CSC(=C[N+](=O)[O-])NCCN(CCC#Cc1ccc(Cl)cc1)Cc1ccc(Cl)nc1 [Compound 301] | 100
CSC(=C[N+](=O)[O-])NCCN(CC#Cc1ccc(F)cc1)Cc1ccc(Cl)nc1 [Compound 302] | 97
CSC(=C[N+](=O)[O-])NCCN(CC#Cc1cncnc1)Cc1ccc(Cl)nc1 [Compound 304] | 61
O=[N+]([O-])C=C(NCCN(Cc1ccccc1)Cc1ccc(Cl)nc1)SCc1ccc(C(F)(F)F)cc1 [Compound 307] | 100
COc1ccc(CN(CCNC(=N[N+](=O)[O-])SCc2ccccc2)Cc2ccc(Cl)nc2)cc1 [Compound 310] | 100
COc1ccc(CN(CCNC(=N[N+](=O)[O-])SCc2ccc(Cl)cc2)Cc2ccc(Cl)nc2)cc1 [Compound 311] | 100
O=[N+]([O-])C=C(NCCN(Cc1ccc(Cl)nc1)Cc1ccc(Cl)nc1)SCc1ccccc1Cl [Compound 314] | 100
O=[N+]([O-])C=C(NCCN(Cc1ccc(Cl)nc1)Cc1ccc(Cl)nc1)SCc1cccc(Cl)c1 [Compound 315] | 98
O=[N+]([O-])C=C(NCCN(Cc1ccc(Cl)nc1)Cc1ccc(Cl)nc1)SCc1c(F)c(F)c(F)c(F)c1F [Compound 318] | 100
